The text below walks through data of patent US8324406B2, “Antitumoral dihydropyran-2-one compounds” (priority 2006, dated 2012).

Assay in all cases: cells
What all share (type): cell-based
Settings in all cases: Homo sapiens; for IC (TGI): read-out: TGI

One assay concerns A549. An excerpt: (§1) The aim of this assay is to evaluate the in vitro cytostatic (ability to delay or arrest tumor cell growth) or cytotoxic (ability to kill tumor cells) activity of the samples being tested.
(§2) Evaluation of Cytotoxic Activity Using the SBR Colorimetric Assay
(§3) A colorimetric type of assay, using sulforhodamine B (SRB) reaction has been adapted for a quantitative measurement of cell growth and viability (following the technique described by Skehan P et al. J. Natl. Cancer Inst. 1990, 82, 1107-1112).
(§4) This form of assay employs SBS-standard 96-well cell culture microplates (Faircloth et al. Methods in cell science, 1988, 11(4), 201-205; Mosmann et al, Journal of. Immunological. Methods, 1983, 65(1-2), 55-63). All the cell lines used in this study, derived from different types of human cancer, were obtained from the American Type Culture Collection (ATCC).
(§5) Cells were maintained in Dulbecco's Modified Eagle Medium (DMEM) supplemented with 10% Fetal Bovine Serum (FBS), 2 mM L-glutamine, 100 U/mL penicillin and 100 U/mL streptomycin at 37° C., 5% CO2 and 98% humidity. For the experiments, cells were harvested from subconfluent cultures using trypsinization and resuspended in fresh medium before counting and plating.
(§6) Cells were seeded in 96 well microtiter plates at 5×10^3 cells per well in aliquots of 150 μL, and allowed to attach to the plate surface for 18 hours in drug free medium. One control (untreated) plate of each cell line was fixed (as described below) and used for time zero reference value. Afterwards, test samples were added to the cultures in ten serial dilutions, in aliquots of 50 μL, ranging from 10 to 0.00262 μg/mL. After 48 hours exposure, the antitumor effect was estimated by the SRB method: Briefly, cells were washed twice with PBS, fixed for 15 min in 1% glutaraldehyde solution, rinsed twice in PBS, and stained in 0.4% SRB solution for 30 min at room temperature. Cells were then rinsed several times with 1% acetic acid solution and air-dried. SRB was then extracted in 10 mM trizma base solution and the absorbance measured in an automated spectrophotometric plate reader at 490 nm. Cell survival was expressed as percentage of control cell growth. The final effect of the sample being tested was estimated by applying the NCI algorithm (Boyd M R and Paull K D. Drug Dev. Res. 1995, 34, 91-104).
(§7) Using the mean±SD of triplicate cultures, a dose-response curve was automatically generated using nonlinear regression analysis. Three reference parameters were calculated (NCI algorithm) by automatic interpolation: GI50=concentration that produces 50% growth inhibition; TGI=total growth inhibition (cytostatic effect) and LC50=concentration that produces 50% net cell killing (cytotoxic effect).

For the next assay, the system named is HT29.
Excerpt: as §1, §2, §3, §4, §5, §6, §7

The subject of the next assay is MDA-MB-231.
Excerpt: as §1, §2, §3, §4, §5, §6, §7

The mark [1] stands for this setting: A549, 48 hours exposure, SRB, 50% net cell killing (cytotoxic effect), read-out: LC50 (the source's name).
[2] abbreviates: A549, 48 hours exposure, SRB, concentration that produces 50% growth inhibition, read-out: GI50.
[3] abbreviates: A549, 48 hours exposure, SRB, total growth inhibition (cytostatic effect).
Setting [4] is: HT-29, HT29, 48 hours exposure, SRB, 50% net cell killing (cytotoxic effect), read-out: LC50 (the source's name).
The mark [5] stands for this setting: HT-29, HT29, 48 hours exposure, SRB, concentration that produces 50% growth inhibition, read-out: GI50.
[6] abbreviates: HT-29, HT29, 48 hours exposure, SRB, total growth inhibition (cytostatic effect).
[7] abbreviates: MDA-MB-231, 48 hours exposure, SRB, 50% net cell killing (cytotoxic effect), read-out: LC50 (the source's name).
Setting [8] is: MDA-MB-231, 48 hours exposure, SRB, concentration that produces 50% growth inhibition, read-out: GI50.
[9] abbreviates: MDA-MB-231, 48 hours exposure, SRB, total growth inhibition (cytostatic effect).
[10] abbreviates: MDA-MB-231, 48 h, read-out: LC50.

Like-named read-outs stand apart in the source and are kept apart here.

For `COC1=CC[C@@H]([C@@H](C)/C=C(C)/C=C/C=C/C(=O)N[C@H](C(=O)N/C=C\C[C@@H](O)C/C=C(\C)Cl)C(C)(C)C)OC1=O` [Compound 38], the CC50 with A549 (setting [1]), in the assay on HT29 (setting [4]) and in the assay on MDA-MB-231 (setting [7]) was above 178 nM each time. Besides, the GI50 in the assay with A549 (setting [2]) was found to be 46.2 nM; with HT29 (setting [5]), 39.1 nM; in the assay on MDA-MB-231 (setting [8]), 60.4 nM. For the same compound, the figures for the IC (TGI) in the assay with A549 (setting [3]), in the assay on HT29 (setting [6]) and in the assay with MDA-MB-231 (setting [9]) were 67.5 nM, 63.9 nM and above 178 nM, respectively.

Turning to `COC1=CC[C@@H]([C@@H](C)/C=C(C)/C=C\C=C/C(=O)N[C@@H](C(N)=O)C(C)(C)C)OC1=O` [(15R)-7], the CC50 is above 24700 nM in the assay on A549 (setting [1]), 1310 nM with HT29 (setting [4]) and above 24700 nM in the assay with MDA-MB-231 (setting [7]). Further, the GI50 with A549 (setting [2]) was 1040 nM; with HT29 (setting [5]) it was 346 nM; with MDA-MB-231 (setting [8]) it was 766 nM. For the same compound, the IC (TGI) worked out at 3460 nM in the assay on A549 (setting [3]), 593 nM in the assay with HT29 (setting [6]) and 2470 nM with MDA-MB-231 (setting [9]).

`COC1=CC[C@@H]([C@@H](C)/C=C(C)/C=C\C=C\C(=O)N[C@H](C(=O)N/C=C\C[C@@H](O)C/C=C(\C)Cl)C(C)(C)C)OC1=O` [Compound 30e]: the CC50 was 3550 nM in the assay with A549 (setting [1]), 44.4 nM in the assay with HT29 (setting [4]) and 266 nM with MDA-MB-231 (setting [7]). Further, the 50% growth inhibitory concentration (GI50) was 35.5 nM in the assay on A549 (setting [2]), 13.5 nM in the assay with HT29 (setting [5]) and 23.1 nM in the assay on MDA-MB-231 (setting [8]). In addition, the figures for the IC (TGI) in the assay with A549 (setting [3]), in the assay with HT29 (setting [6]) and in the assay on MDA-MB-231 (setting [9]) were 302 nM, 21.3 nM and 65.7 nM, respectively.

For `COC1=CC[C@@H]([C@@H](C)/C=C(C)/C=C\C=C/C(=O)N[C@@H](Cc2ccccc2)C(=O)N/C=C\C[C@H](C/C=C(\C)Cl)OC(N)=O)OC1=O` [Compound 31], the CC50 in the assay with A549 (setting [1]) is above 15.6 nM; in the assay on HT29 (setting [4]), above 15.6 nM; with MDA-MB-231 (setting [7]), 0.359 nM. Further, the GI50 turned out to be 0.0922 nM with A549 (setting [2]), 0.0406 nM in the assay on HT29 (setting [5]) and 0.075 nM in the assay on MDA-MB-231 (setting [8]). Further, the IC (TGI) in the assay on A549 (setting [3]) is 0.219 nM; with HT29 (setting [6]) it was 0.102 nM; in the assay with MDA-MB-231 (setting [9]), 0.15 nM.

As for `COC1=CC[C@@H]([C@@H](C)/C=C(C)/C=C\C=C/C(=O)N[C@H](C(=O)N/C=C\C[C@@H](O)C/C=C(\C)Cl)C(C)C)OC1=O` [Compound 30c], the CC50 in the assay on A549 (setting [1]) is above 182 nM; in the assay on HT29 (setting [4]), above 182 nM; with MDA-MB-231 (setting [7]), 52.8 nM. For the same compound, the GI50 was 0.71 nM with A549 (setting [2]), 0.474 nM in the assay on HT29 (setting [5]) and 0.983 nM with MDA-MB-231 (setting [8]). Further, the IC (TGI) came out at 3.1 nM in the assay with A549 (setting [3]), 0.838 nM in the assay on HT29 (setting [6]) and 5.83 nM in the assay with MDA-MB-231 (setting [9]).

For `COC1=CC[C@@H]([C@@H](C)/C=C(C)/C=C\C=C/C(=O)N[C@H](C(N)=O)C(C)(C)C)OC1=O` [Compound 7], the CC50 in the assay with A549 (setting [1]) was above 2470 nM; with HT29 (setting [4]) it was 816 nM; in the assay with MDA-MB-231 (setting [7]), 2450 nM. In addition, the figures for the GI50 in the assay on A549 (setting [2]), with HT29 (setting [5]) and in the assay with MDA-MB-231 (setting [8]) were 618 nM, 420 nM and 420 nM, respectively. The IC (TGI) in the assay with A549 (setting [3]) was 1190 nM; in the assay on HT29 (setting [6]), 544 nM; in the assay on MDA-MB-231 (setting [9]), 841 nM.

On to `COC1=CC[C@@H]([C@@H](C)/C=C(C)/C=C\C=C/C(=O)N[C@H](C(=O)N/C=C\C[C@@H](C/C=C(\C)Cl)OC(N)=O)C(C)(C)C)OC1=O` [Compound (21S)-1], for which the GI50 turned out to be 2.14 nM in the assay with A549 (A549, 48 h); 0.891 nM in the assay on HT29 (HT-29, 48 h); 1.65 nM in the assay on MDA-MB-231 (MDA-MB-231, 48 h). Also, the CC50 was above 1650 nM in the assay on A549 (A549, 48 h, read-out: LC50); 23.1 nM in the assay with HT29 (HT-29, 48 h, read-out: LC50); 34.6 nM in the assay with MDA-MB-231 (setting [10]). Besides, the IC (TGI) in the assay on A549 (A549, 48 h) was determined as 42.9 nM; in the assay on HT29 (HT-29, 48 h), 1.63 nM; in the assay on MDA-MB-231 (MDA-MB-231, 48 h) it was 5.77 nM.

In the case of `C/C=C\C[C@@H](C/C=C\NC(=O)[C@@H](NC(=O)\C=C/C=C\C(C)=C\[C@H](C)[C@@H]1CC=C(OC)C(=O)O1)C(C)(C)C)OC(N)=O` [Compound 4], the CC50 in the assay on A549 (A549, 48 h, read-out: LC50) was above 1640 nM; in the assay on HT29 (HT-29, 48 h, read-out: LC50), 1.12 nM; in the assay with MDA-MB-231 (setting [10]), 8.23 nM. In addition, the GI50 is 0.595 nM in the assay on A549 (setting [2]), below 0.431 nM in the assay on HT29 (setting [5]) and 0.613 nM in the assay with MDA-MB-231 (setting [8]). Besides, the results for the IC (TGI) in the assay with A549 (setting [3]), in the assay on HT29 (setting [6]) and in the assay with MDA-MB-231 (setting [9]) were 2.45 nM, 0.928 nM and 1.49 nM, respectively.
